From ChEMBL document CHEMBL4680259, “Discovery of bazedoxifene analogues targeting glycoprotein 130” (Eur J Med Chem, 2020)

Assays:
A549 = test: Antiproliferative activity against human A549 cells assessed as cell growth inhibition measured after 24 hrs by MTT assay; format: functional, cell-based; details: A549, 24 h
[1] = target: T1, Interleukin-6 receptor subunit beta (Homo sapiens) (UniProt P40189); test: Binding affinity to immobilized GP130 (unknown origin) assessed as response unit at 20 uM by SPR analysis
T1 sequence (whole entry): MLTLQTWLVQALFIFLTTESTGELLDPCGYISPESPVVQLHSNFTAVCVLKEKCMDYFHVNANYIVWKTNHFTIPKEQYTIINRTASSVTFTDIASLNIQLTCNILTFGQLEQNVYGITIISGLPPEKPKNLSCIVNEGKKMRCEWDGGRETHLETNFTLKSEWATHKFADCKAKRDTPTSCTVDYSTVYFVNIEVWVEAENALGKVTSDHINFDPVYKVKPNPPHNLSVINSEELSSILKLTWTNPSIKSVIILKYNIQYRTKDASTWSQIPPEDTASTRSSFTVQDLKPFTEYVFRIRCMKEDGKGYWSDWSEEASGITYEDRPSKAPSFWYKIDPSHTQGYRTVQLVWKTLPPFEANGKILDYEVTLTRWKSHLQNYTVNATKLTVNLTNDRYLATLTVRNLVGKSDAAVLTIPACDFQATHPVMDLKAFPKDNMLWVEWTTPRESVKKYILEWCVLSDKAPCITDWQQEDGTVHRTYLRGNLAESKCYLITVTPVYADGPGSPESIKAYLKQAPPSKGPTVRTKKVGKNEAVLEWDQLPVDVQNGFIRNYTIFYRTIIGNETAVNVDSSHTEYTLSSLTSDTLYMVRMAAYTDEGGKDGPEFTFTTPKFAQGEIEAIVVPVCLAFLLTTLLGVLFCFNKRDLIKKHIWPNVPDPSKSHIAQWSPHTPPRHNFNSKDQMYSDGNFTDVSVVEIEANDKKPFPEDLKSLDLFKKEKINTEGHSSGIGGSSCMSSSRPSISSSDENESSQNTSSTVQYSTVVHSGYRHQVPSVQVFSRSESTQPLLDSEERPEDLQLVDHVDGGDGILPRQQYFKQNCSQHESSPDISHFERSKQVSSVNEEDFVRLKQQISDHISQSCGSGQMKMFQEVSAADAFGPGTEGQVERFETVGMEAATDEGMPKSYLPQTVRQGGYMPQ

NC(=O)N1N=C(c2ccc(C(F)(F)F)cc2)CC1c1cn(Cc2ccc(OCCN3CCCCC3)cc2)c2ccc(Br)cc12 (stereo not given)
IC50 (A549): 4.69 µM
Activity [1]: 19.9 RU

NC(=O)N1N=C(c2ccc(F)cc2)CC1c1cn(Cc2ccc(OCCN3CCCCC3)cc2)c2ccc(Br)cc12 (stereo not given)
IC50 (A549): 6.8 µM
Activity [1]: 19.9 RU

COc1ccccc1C1=NN(C(N)=O)C(c2cn(Cc3ccc(OCCN4CCCCC4)cc3)c3ccc(Br)cc23)C1 (stereo not given)
IC50 (A549): 6.98 µM
Activity [1]: 36.4 RU

COc1ccc(C2=NN(C(N)=O)C(c3cn(Cc4ccc(OCCN5CCCCC5)cc4)c4ccccc34)C2)cc1 (stereo not given)
IC50 (A549): 12.7 µM
Activity [1]: 33.3 RU

NC(=O)N1N=C(c2ccc(C(F)(F)F)cc2)C[C@@H]1c1cn(Cc2ccc(OCCN3CCCCCC3)cc2)c2ccc(Br)cc12
IC50 (A549): 6.16 µM
Activity [1]: 24.2 RU

COc1ccc2c(c1)c(C1CC(c3cc(OC)c(OC)c(OC)c3)=NN1C(N)=O)cn2Cc1ccc(OCCN2CCCCC2)cc1 (stereo not given)
IC50 (A549): 12.2 µM
Activity [1]: 16.2 RU

NC(=O)N1N=C(c2ccc(C(F)(F)F)cc2)CC1c1cn(Cc2ccc(OCCN3CCOCC3)cc2)c2ccc(Br)cc12 (stereo not given)
IC50 (A549): 9.44 µM
Activity [1]: 8.2 RU

NC(=O)N1N=C(c2ccc(F)cc2)CC1c1cn(Cc2ccc(OCCN3CCCCC3)cc2)c2ccccc12 (stereo not given)
IC50 (A549): 7.44 µM
Activity [1]: 21 RU

NC(=O)N1N=C(c2ccc(Br)cc2)CC1c1cn(Cc2ccc(OCCN3CCCCC3)cc2)c2ccc(Br)cc12 (stereo not given)
IC50 (A549): 6.73 µM
Activity [1]: 47.3 RU

NC(=O)N1N=C(c2ccc(C(F)(F)F)cc2)CC1c1cn(Cc2ccc(OCCC3CCNCC3)cc2)c2ccc(Br)cc12 (stereo not given)
IC50 (A549): 4.62 µM
Activity [1]: 35 RU

COc1cc(C2=NN(C(N)=O)C(c3cn(Cc4ccc(OCCN5CCCCC5)cc4)c4ccc(Br)cc34)C2)cc(OC)c1OC (stereo not given)
IC50 (A549): 6.96 µM
Activity [1]: 32.7 RU

COc1cc(C2=NN(C(N)=O)C(c3cn(Cc4ccc(OCCN5CCCCC5)cc4)c4ccccc34)C2)cc(OC)c1OC (stereo not given)
IC50 (A549): 11.8 µM
Activity [1]: 21.7 RU

NC(=O)N1N=C(c2cccc(Cl)c2)CC1c1cn(Cc2ccc(OCCN3CCCCC3)cc2)c2ccc(Br)cc12 (stereo not given)
IC50 (A549): 5.9 µM
Activity [1]: 27.4 RU

NC(=O)N1N=C(c2ccc(C(F)(F)F)cc2)C[C@H]1c1cn(Cc2ccc(OCCN3CCCCCC3)cc2)c2ccc(Br)cc12
IC50 (A549): 3.04 µM
Activity [1]: 37.4 RU

CCCCCCCOc1ccc(Cn2cc(C3CC(c4ccc(C(F)(F)F)cc4)=NN3C(N)=O)c3cc(Br)ccc32)cc1 (stereo not given)
IC50 (A549): > 50 µM
Activity [1]: 0.6 RU

COc1ccc2c(c1)c(C1CC(c3ccc(F)cc3)=NN1C(N)=O)cn2Cc1ccc(OCCN2CCCCC2)cc1 (stereo not given)
IC50 (A549): 9.47 µM
Activity [1]: 10.9 RU

COc1ccc(C2=NN(C(N)=O)C(c3cn(Cc4ccc(OCCN5CCCCC5)cc4)c4ccc(Br)cc34)C2)cc1OC (stereo not given)
IC50 (A549): 7.43 µM
Activity [1]: 30.1 RU

COc1ccc(C2=NN(C(N)=O)C(c3cn(Cc4ccc(OCCN5CCCCC5)cc4)c4ccc(Br)cc34)C2)cc1 (stereo not given)
IC50 (A549): 5.9 µM
Activity [1]: 26.2 RU

NC(=O)N1N=C(c2ccc(Cl)cc2)CC1c1cn(Cc2ccc(OCCN3CCCCC3)cc2)c2ccc(Br)cc12 (stereo not given)
IC50 (A549): 5.41 µM
Activity [1]: 29.2 RU

CN(C)CCOc1ccc(Cn2cc(C3CC(c4ccc(C(F)(F)F)cc4)=NN3C(N)=O)c3cc(Br)ccc32)cc1 (stereo not given)
IC50 (A549): 6.21 µM
Activity [1]: 22.7 RU

NC(=O)N1N=C(c2ccc(C(F)(F)F)cc2)CC1c1cn(Cc2ccc(OCCN3CCCCC3)cc2)c2ccccc12 (stereo not given)
IC50 (A549): 5.6 µM
Activity [1]: 8.2 RU

NC(=O)N1N=C(c2cccc(C(F)(F)F)c2)CC1c1cn(Cc2ccc(OCCN3CCCCC3)cc2)c2ccc(Br)cc12 (stereo not given)
IC50 (A549): 5.42 µM
Activity [1]: 10.2 RU

COc1ccc2c(c1)c(C1CC(c3ccc(C(F)(F)F)cc3)=NN1C(N)=O)cn2Cc1ccc(OCCN2CCCCC2)cc1 (stereo not given)
IC50 (A549): 6.18 µM
Activity [1]: 10.4 RU

COc1ccc(C2=NN(C(N)=O)C(c3cn(Cc4ccc(OCCN5CCCCC5)cc4)c4ccc(OC)cc34)C2)cc1 (stereo not given)
IC50 (A549): 14.4 µM
Activity [1]: 28.8 RU

COc1cccc(C2=NN(C(N)=O)C(c3cn(Cc4ccc(OCCN5CCCCC5)cc4)c4ccc(Br)cc34)C2)c1 (stereo not given)
IC50 (A549): 6.23 µM
Activity [1]: 19.6 RU
